Experimental data from ChEMBL document CHEMBL4507275, “Data for DCP probe BI-2545” (2021).

How the values were obtained:
[1] = target: Sodium-dependent noradrenaline transporter (Homo sapiens) (UniProt P23975); conditions: Compound concentration 10.0 uM
[2] = target: Casein kinase I isoform alpha (Homo sapiens) (UniProt P48729); conditions: Compound concentration 1000.0 nM
[3] = tested on: Proto-oncogene tyrosine-protein kinase receptor Ret (Homo sapiens), P07949 [V804L]; conditions: Compound concentration 1000.0 nM
[4] = target: Fibroblast growth factor receptor 3 (Homo sapiens) (UniProt P22607); conditions: Compound concentration 1000.0 nM
[5] = target: Ephrin type-A receptor 7 (Homo sapiens) (UniProt Q15375); conditions: Compound concentration 1000.0 nM
[6] = target: Serine/threonine-protein kinase 25 (Homo sapiens) (UniProt O00506); conditions: Compound concentration 1000.0 nM
[7] = target: Phosphatidylinositol 5-phosphate 4-kinase type-2 beta (Homo sapiens) (UniProt P78356); conditions: Compound concentration 1000.0 nM
[8] = target: Phosphatidylinositol 4,5-bisphosphate 3-kinase catalytic subunit alpha isoform (Homo sapiens) (UniProt P42336); conditions: Compound concentration 1000.0 nM
[9] = target: Serine/threonine-protein kinase tousled-like 1 (Homo sapiens) (UniProt Q9UKI8); conditions: Compound concentration 1000.0 nM
[10] = target: Rho-associated protein kinase 2 (Homo sapiens) (UniProt O75116); conditions: Compound concentration 1000.0 nM
[11] = target: Mitogen-activated protein kinase 11 (Homo sapiens) (UniProt Q15759); conditions: Compound concentration 1000.0 nM
[12] = target: Cyclin-dependent kinase 11B (Homo sapiens) (UniProt P21127); conditions: Compound concentration 1000.0 nM
[13] = target: Macrophage colony-stimulating factor 1 receptor (Homo sapiens) (UniProt P07333); conditions: Compound concentration 1000.0 nM
[14] = target: Mitogen-activated protein kinase 12 (Homo sapiens) (UniProt P53778); conditions: Compound concentration 1000.0 nM
[15] = target: ALK tyrosine kinase receptor (Homo sapiens) (UniProt Q9UM73); conditions: Compound concentration 1000.0 nM
[16] = target: Cyclin-dependent kinase 2 (Homo sapiens) (UniProt P24941); conditions: Compound concentration 1000.0 nM
[17] = tested on: Leucine-rich repeat serine/threonine-protein kinase 2 (Homo sapiens), Q5S007 [G2019S]; conditions: Compound concentration 1000.0 nM
[18] = target: Ephrin type-B receptor 2 (Homo sapiens) (UniProt P29323); conditions: Compound concentration 1000.0 nM
[19] = target: Mitogen-activated protein kinase kinase kinase 19 (Homo sapiens) (UniProt Q56UN5); conditions: Compound concentration 1000.0 nM
[20] = tested on: Epidermal growth factor receptor (Homo sapiens), P00533 [T790M]; conditions: Compound concentration 1000.0 nM
[21] = target: BDNF/NT-3 growth factors receptor (Homo sapiens) (UniProt Q16620); conditions: Compound concentration 1000.0 nM
[22] = tested on: eIF-2-alpha kinase GCN2 (Homo sapiens), Q9P2K8 [S808G]; conditions: Compound concentration 1000.0 nM
[23] = target: Mitogen-activated protein kinase kinase kinase 9 (Homo sapiens) (UniProt P80192); conditions: Compound concentration 1000.0 nM
[24] = target: Activin receptor type-1B (Homo sapiens) (UniProt P36896); conditions: Compound concentration 1000.0 nM
[25] = target: Serine/threonine-protein kinase 32B (Homo sapiens) (UniProt Q9NY57); conditions: Compound concentration 1000.0 nM
[26] = target: Interleukin-1 receptor-associated kinase 4 (Homo sapiens) (UniProt Q9NWZ3); conditions: Compound concentration 1000.0 nM
[27] = target: Serine/threonine-protein kinase 26 (Homo sapiens) (UniProt Q9P289); conditions: Compound concentration 1000.0 nM
[28] = target: Death-associated protein kinase 3 (Homo sapiens) (UniProt O43293); conditions: Compound concentration 1000.0 nM
[29] = target: Serine/threonine-protein kinase N2 (Homo sapiens) (UniProt Q16513); conditions: Compound concentration 1000.0 nM
[30] = target: Aurora kinase B (Homo sapiens) (UniProt Q96GD4); conditions: Compound concentration 1000.0 nM
[31] = target: Cyclin-dependent kinase 4 (Homo sapiens) (UniProt P11802); conditions: Compound concentration 1000.0 nM
[32] = target: Phosphorylase b kinase regulatory subunit alpha, liver isoform (Homo sapiens) (UniProt P46019); conditions: Compound concentration 1000.0 nM
[33] = target: Uncharacterized serine/threonine-protein kinase SBK3 (Homo sapiens) (UniProt P0C264); conditions: Compound concentration 1000.0 nM
[34] = target: Myosin light chain kinase, smooth muscle (Homo sapiens) (UniProt Q15746); conditions: Compound concentration 1000.0 nM
[35] = tested on: Receptor-type tyrosine-protein kinase FLT3 (Homo sapiens), P36888 [UNDEFINED MUTATION]; conditions: Compound concentration 1000.0 nM
[36] = target: Vascular endothelial growth factor receptor 2 (Homo sapiens) (UniProt P35968); conditions: Compound concentration 1000.0 nM
[37] = target: Alpha-1D adrenergic receptor (Homo sapiens) (UniProt P25100); conditions: Compound concentration 10.0 uM
[38] = tested on: Epidermal growth factor receptor (Homo sapiens), P00533 [UNDEFINED MUTATION]; conditions: Compound concentration 1000.0 nM
[39] = target: T1, 5-hydroxytryptamine receptor 3A (Homo sapiens) (UniProt P46098); conditions: Compound concentration 10.0 uM
T1 sequence (whole entry): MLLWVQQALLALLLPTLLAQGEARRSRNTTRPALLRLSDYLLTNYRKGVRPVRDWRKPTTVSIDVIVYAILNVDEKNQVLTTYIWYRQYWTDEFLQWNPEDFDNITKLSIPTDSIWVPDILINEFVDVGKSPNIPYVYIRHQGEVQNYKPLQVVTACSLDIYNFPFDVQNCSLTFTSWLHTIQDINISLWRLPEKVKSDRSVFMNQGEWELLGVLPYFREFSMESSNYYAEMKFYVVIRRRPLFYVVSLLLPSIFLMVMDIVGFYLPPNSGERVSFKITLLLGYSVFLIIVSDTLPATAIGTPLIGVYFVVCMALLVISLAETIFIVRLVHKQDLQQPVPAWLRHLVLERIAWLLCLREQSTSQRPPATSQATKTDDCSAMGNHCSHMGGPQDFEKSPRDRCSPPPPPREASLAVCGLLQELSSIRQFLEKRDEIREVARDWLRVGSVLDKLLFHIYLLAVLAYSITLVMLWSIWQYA

Sequence of Leucine-rich repeat serine/threonine-protein kinase 2 (Homo sapiens), Q5S007 [G2019S] (Q5S007 whole entry G2019S): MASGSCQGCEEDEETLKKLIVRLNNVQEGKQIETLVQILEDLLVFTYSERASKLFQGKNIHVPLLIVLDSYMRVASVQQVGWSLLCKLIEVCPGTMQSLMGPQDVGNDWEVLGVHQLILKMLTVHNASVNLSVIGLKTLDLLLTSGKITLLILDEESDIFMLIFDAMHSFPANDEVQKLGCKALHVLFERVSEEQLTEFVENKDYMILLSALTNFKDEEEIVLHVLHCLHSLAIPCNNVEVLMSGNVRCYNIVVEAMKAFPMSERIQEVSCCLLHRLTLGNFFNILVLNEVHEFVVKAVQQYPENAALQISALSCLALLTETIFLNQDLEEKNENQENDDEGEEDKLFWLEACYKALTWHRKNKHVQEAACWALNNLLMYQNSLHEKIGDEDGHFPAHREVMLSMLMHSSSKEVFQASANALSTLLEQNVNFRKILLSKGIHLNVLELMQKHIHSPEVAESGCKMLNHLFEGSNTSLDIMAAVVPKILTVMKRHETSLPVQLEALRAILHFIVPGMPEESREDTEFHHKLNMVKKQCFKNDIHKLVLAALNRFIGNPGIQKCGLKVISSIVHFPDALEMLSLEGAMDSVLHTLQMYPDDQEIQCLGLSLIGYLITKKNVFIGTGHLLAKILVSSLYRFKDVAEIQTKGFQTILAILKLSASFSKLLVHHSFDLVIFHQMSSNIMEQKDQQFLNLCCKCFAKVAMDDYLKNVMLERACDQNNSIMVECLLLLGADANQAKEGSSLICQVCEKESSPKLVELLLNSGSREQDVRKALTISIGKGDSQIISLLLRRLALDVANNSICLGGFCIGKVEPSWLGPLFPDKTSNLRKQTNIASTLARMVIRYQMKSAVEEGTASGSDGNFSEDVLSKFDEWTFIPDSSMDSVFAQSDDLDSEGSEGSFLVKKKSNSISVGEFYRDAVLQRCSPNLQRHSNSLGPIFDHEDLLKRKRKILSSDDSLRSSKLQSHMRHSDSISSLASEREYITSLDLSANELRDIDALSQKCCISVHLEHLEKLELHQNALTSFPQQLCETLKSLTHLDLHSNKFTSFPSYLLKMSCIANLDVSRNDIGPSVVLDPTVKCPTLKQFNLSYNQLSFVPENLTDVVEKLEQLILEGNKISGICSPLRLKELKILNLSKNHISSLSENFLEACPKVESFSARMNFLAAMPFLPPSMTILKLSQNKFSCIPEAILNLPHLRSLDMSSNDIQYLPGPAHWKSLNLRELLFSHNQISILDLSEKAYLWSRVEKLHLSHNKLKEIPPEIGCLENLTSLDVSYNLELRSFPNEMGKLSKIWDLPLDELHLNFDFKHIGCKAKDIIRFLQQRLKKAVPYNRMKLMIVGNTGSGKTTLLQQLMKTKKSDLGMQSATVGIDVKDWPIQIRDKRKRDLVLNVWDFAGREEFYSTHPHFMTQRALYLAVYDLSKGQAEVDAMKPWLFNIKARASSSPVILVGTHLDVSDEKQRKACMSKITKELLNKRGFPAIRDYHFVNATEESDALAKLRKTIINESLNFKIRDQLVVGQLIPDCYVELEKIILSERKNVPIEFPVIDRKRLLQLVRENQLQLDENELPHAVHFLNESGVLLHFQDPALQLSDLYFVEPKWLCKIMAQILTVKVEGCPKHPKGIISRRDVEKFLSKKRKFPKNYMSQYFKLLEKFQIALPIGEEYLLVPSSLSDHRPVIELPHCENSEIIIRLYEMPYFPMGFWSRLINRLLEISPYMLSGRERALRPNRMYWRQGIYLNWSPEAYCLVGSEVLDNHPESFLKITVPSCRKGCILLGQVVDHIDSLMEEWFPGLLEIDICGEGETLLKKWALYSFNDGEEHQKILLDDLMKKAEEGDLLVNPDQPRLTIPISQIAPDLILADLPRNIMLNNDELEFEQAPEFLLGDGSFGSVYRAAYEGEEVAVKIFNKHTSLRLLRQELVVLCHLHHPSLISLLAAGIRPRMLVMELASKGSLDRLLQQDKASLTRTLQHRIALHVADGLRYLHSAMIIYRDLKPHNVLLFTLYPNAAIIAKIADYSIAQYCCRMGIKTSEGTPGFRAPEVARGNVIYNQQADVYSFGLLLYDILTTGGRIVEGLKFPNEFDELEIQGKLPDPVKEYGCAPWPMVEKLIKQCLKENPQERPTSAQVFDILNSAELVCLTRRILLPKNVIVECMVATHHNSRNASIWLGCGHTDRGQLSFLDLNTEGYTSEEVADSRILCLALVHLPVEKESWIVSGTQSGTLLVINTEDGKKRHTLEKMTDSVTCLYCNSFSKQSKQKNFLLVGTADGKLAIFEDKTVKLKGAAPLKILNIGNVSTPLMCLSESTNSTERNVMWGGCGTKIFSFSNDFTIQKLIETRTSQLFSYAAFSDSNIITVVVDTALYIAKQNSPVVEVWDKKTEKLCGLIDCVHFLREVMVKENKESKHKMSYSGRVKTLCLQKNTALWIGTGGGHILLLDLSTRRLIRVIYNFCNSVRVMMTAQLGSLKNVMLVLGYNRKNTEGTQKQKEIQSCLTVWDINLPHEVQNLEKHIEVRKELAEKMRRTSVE
Sequence of Serine/threonine-protein kinase 25 (Homo sapiens) (O00506 whole entry, looked up): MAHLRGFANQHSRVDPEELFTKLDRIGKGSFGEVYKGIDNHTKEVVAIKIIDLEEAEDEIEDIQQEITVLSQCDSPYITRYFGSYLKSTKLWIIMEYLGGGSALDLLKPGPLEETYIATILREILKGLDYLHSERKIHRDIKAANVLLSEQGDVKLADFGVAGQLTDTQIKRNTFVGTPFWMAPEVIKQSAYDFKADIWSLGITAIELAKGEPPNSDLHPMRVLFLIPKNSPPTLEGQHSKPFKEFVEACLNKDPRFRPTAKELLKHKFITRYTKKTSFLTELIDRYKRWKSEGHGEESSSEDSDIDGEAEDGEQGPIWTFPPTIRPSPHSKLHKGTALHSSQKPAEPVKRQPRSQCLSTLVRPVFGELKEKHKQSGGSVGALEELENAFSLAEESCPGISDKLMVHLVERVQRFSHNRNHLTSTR
Sequence of Activin receptor type-1B (Homo sapiens) (P36896 whole entry): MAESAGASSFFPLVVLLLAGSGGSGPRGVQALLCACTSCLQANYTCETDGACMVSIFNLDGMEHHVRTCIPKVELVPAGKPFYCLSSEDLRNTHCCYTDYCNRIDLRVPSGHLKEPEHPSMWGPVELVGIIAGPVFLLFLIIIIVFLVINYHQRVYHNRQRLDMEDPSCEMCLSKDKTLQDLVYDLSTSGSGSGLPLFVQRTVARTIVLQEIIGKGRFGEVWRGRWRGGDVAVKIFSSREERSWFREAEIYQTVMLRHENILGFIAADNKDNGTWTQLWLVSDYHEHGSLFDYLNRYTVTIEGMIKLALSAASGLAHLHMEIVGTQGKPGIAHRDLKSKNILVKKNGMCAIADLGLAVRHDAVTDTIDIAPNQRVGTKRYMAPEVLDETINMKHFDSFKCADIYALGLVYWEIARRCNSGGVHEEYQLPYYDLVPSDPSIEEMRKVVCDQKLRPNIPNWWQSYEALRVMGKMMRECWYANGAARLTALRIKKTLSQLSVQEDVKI
Sequence of Interleukin-1 receptor-associated kinase 4 (Homo sapiens) (Q9NWZ3 whole entry): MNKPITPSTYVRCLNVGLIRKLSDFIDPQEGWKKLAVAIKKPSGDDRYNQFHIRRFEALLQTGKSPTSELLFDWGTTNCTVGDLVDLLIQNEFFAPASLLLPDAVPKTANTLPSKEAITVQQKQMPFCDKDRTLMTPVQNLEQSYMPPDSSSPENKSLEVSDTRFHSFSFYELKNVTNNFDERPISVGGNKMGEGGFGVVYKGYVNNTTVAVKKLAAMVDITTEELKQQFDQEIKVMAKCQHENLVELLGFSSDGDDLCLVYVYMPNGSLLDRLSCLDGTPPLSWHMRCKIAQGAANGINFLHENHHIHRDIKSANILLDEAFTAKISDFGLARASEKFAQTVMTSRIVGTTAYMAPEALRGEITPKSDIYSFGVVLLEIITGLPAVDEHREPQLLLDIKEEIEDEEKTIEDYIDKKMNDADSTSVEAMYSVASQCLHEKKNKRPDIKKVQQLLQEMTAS
Sequence of Serine/threonine-protein kinase 32B (Homo sapiens) (Q9NY57 whole entry): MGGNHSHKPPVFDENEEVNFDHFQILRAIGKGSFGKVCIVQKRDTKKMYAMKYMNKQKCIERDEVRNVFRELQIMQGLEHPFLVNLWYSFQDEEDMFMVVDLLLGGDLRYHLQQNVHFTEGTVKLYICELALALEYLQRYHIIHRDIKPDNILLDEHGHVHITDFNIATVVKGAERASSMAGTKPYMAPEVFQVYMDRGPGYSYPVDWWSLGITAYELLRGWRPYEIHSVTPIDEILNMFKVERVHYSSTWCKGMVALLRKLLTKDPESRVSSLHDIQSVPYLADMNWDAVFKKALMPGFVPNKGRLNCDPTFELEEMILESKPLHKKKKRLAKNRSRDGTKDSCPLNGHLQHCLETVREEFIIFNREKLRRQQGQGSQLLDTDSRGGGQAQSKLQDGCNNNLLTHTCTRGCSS
Sequence of Aurora kinase B (Homo sapiens) (Q96GD4 whole entry): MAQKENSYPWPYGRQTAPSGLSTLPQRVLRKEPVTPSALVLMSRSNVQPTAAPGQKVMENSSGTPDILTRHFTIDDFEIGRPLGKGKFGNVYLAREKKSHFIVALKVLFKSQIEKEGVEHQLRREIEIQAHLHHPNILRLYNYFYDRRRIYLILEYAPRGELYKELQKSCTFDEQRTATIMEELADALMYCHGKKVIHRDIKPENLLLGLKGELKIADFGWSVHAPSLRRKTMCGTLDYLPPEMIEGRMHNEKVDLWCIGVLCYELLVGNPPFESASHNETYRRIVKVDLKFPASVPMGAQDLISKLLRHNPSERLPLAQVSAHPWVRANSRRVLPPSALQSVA
Sequence of Mitogen-activated protein kinase 11 (Homo sapiens) (Q15759 whole entry): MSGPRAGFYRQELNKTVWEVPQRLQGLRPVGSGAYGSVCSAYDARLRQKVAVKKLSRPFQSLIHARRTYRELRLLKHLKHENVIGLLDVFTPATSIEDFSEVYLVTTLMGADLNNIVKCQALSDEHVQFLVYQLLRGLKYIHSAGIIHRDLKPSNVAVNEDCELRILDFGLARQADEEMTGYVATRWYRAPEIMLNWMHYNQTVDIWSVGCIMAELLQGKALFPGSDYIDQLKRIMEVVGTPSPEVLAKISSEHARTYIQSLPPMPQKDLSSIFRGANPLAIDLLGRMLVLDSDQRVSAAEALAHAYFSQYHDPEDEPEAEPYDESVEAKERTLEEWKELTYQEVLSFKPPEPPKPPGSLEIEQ

O=C(NC[C@@H]1[C@H]2CN(C(=O)OCc3cc(C(F)(F)F)cc(C(F)(F)F)c3)C[C@@H]12)c1ccc2[nH]nnc2c1 [BI 2545]
inactive: inhibition [1] 15.5% | residual activity [2] 100% | residual activity [3] 100% | residual activity [4] 82% | residual activity [5] 96% | residual activity [6] 95% | residual activity [7] 100% | residual activity [8] 74% | residual activity [9] 68% | residual activity [10] 90% | residual activity [11] 100% | residual activity [12] 100% | residual activity [13] 99% | residual activity [14] 100% | residual activity [15] 79% | residual activity [16] 100% | residual activity [17] 91% | residual activity [18] 100% | residual activity [19] 100% | residual activity [20] 78% | residual activity [21] 99% | residual activity [22] 84% | residual activity [23] 100% | residual activity [24] 100% | residual activity [25] 100% | residual activity [26] 100% | residual activity [27] 76% | residual activity [28] 94% | residual activity [29] 93% | residual activity [30] 84% | residual activity [31] 97% | residual activity [32] 100% | residual activity [33] 100% | residual activity [34] 88% | residual activity [35] 88% | residual activity [36] 96% | inhibition [37] -1.41% | residual activity [38] 89% | inhibition [39] 8.82%

Cc1nccc(COC(=O)N2C[C@@H]3[C@@H](CNC(=O)c4ccc5[nH]nnc5c4)[C@@H]3C2)n1 [BI 3017]
inactive: inhibition [1] -7.15% | residual activity [2] 86% | residual activity [3] 100% | residual activity [4] 93% | residual activity [5] 89% | residual activity [6] 100% | residual activity [7] 100% | residual activity [8] 92% | residual activity [9] 87% | residual activity [10] 86% | residual activity [11] 94% | residual activity [12] 100% | residual activity [13] 88% | residual activity [14] 79% | residual activity [15] 87% | residual activity [16] 77% | residual activity [17] 82% | residual activity [18] 100% | residual activity [19] 90% | residual activity [20] 91% | residual activity [21] 100% | residual activity [22] 84% | residual activity [23] 89% | residual activity [24] 92% | residual activity [25] 97% | residual activity [26] 87% | residual activity [27] 77% | residual activity [28] 92% | residual activity [29] 100% | residual activity [30] 93% | residual activity [31] 78% | residual activity [32] 97% | residual activity [33] 54% | residual activity [34] 100% | residual activity [35] 79% | residual activity [36] 80% | inhibition [37] -6.43% | residual activity [38] 71% | inhibition [39] 16.4%
